From PubChem BioAssay AID1963874 (Molecular Pharmacology Branch, DTP, NCI, 2024)

System: 253994-281-T-J1-PDC KRAS-mutant spheroids with HUVEC/MSC, viability
Experiment: Anticancer human tumor 253994-281-T-J1-PDC patient-derived colorectal carcinoma cell line growth inhibition [KRAS2]
Conditions: for IC50: curve of first compound; for viability, T/C: stronger effect = lower value
In short: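 Combination screen of spheroid viability in tumor-cell co-cultures with endothelial (HUVEC) and mesenchymal stem cell stroma. Each agent was tested in half-log dilutions, topping at clinical Cmax or at 10 microM without a known Cmax.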

[1] = second compound 0.1 µM, first compound 0.01 µM
[2] = second compound 0.1 µM, first compound 0.0316 µM
[3] = second compound 0.1 µM, first compound 0.1 µM
[4] = second compound 0.1 µM, first compound 0.316 µM
[5] = second compound 0.1 µM, first compound 1 µM
[6] = second compound 0.1 µM, first compound 3.16 µM
[7] = second compound 0.316 µM, first compound 0.01 µM
[8] = second compound 0.316 µM, first compound 0.0316 µM
[9] = second compound 0.316 µM, first compound 0.1 µM
[10] = second compound 0.316 µM, first compound 0.316 µM
[11] = second compound 0.316 µM, first compound 1 µM
[12] = second compound 0.316 µM, first compound 3.16 µM
[13] = second compound 1 µM, first compound 0.01 µM
[14] = second compound 1 µM, first compound 0.0316 µM
[15] = second compound 1 µM, first compound 0.1 µM
[16] = second compound 1 µM, first compound 0.316 µM
[17] = second compound 1 µM, first compound 1 µM
[18] = second compound 1 µM, first compound 3.16 µM
[19] = second compound 3.16 µM, first compound 0.01 µM
[20] = second compound 3.16 µM, first compound 0.0316 µM
[21] = second compound 3.16 µM, first compound 0.1 µM
[22] = second compound 3.16 µM, first compound 0.316 µM
[23] = second compound 3.16 µM, first compound 1 µM
[24] = second compound 3.16 µM, first compound 3.16 µM
[25] = second compound 10 µM, first compound 0.01 µM
[26] = second compound 10 µM, first compound 0.0316 µM
[27] = second compound 10 µM, first compound 0.1 µM
[28] = second compound 10 µM, first compound 0.316 µM
[29] = second compound 10 µM, first compound 1 µM
[30] = second compound 10 µM, first compound 3.16 µM
[31] = second compound 0.1 µM, first compound 10 µM
[32] = second compound 0.316 µM, first compound 10 µM
[33] = second compound 1 µM, first compound 10 µM
[34] = second compound 3.16 µM, first compound 10 µM
[35] = second compound 10 µM, first compound 10 µM
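Note: spheroids exposed to agents for seven days before readout.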
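Throughout, for viability, T/C: percent of DMSO vehicle control viability.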

| Compound | IC50 (second compound 0.1 µM) | IC50 (second compound 0.316 µM) | IC50 (second compound 1 µM) | IC50 (second compound 3.16 µM) | IC50 (second compound 10 µM) | viability, T/C [2] | viability, T/C [3] | viability, T/C [4] | viability, T/C [5] | viability, T/C [8] | viability, T/C [9] | viability, T/C [10] | viability, T/C [11] | viability, T/C [14] | viability, T/C [15] | viability, T/C [16] | viability, T/C [17] | viability, T/C [20] | viability, T/C [21] | viability, T/C [22] | also measured |
| --- | --- | --- | --- | --- | --- | --- | --- | --- | --- | --- | --- | --- | --- | --- | --- | --- | --- | --- | --- | --- | --- |
| CC1COCCN1c1cc(-c2ccnn2C)c2ccnc(-c3ccn[nH]3)c2n1 (stereo not given) + COc1cc2nc(C)nc(NC(C)c3cc(N)cc(C(F)(F)F)c3)c2cc1OC1CCOC1 | > 3160 nM | 169 nM | 151 nM | 99.6 nM | 96.2 nM | 72.8% | 65.3% | 47.9% | 52.5% | 83.2% | 55.2% | 39.1% | 37.6% | 74.8% | 56.5% | 35% | 40.4% | 82.5% | 49.9% | 37.2% | viability, T/C [1]: 95.2%; viability, T/C [6]: 55.1%; viability, T/C [7]: 88.4%; viability, T/C [12]: 55.6%; viability, T/C [13]: 92.5%; viability, T/C [18]: 54.5%; viability, T/C [19]: 80.6%; viability, T/C [23]: 39%; viability, T/C [24]: 49.2%; viability, T/C [25]: 75.7%; viability, T/C [26]: 74.6%; viability, T/C [27]: 49.2%; viability, T/C [28]: 31.8%; viability, T/C [29]: 41%; viability, T/C [30]: 42.4% |
| CC1OCC2(CCN(c3cnc(Sc4ccnc(N)c4Cl)c(N)n3)CC2)C1N (stereo not given) + COc1cc2nc(C)nc(NC(C)c3cc(N)cc(C(F)(F)F)c3)c2cc1OC1CCOC1 | > 10000 nM | 9310 nM | 7650 nM | > 10000 nM | 3310 nM | 110% | 86.2% | 91.9% | 74.5% | 87.5% | 87.6% | 81.6% | 68% | 101% | 91.2% | 78.5% | 74.7% | 83.6% | 87.1% | 90.6% | viability, T/C [6]: 68%; viability, T/C [31]: 48%; viability, T/C [12]: 58.8%; viability, T/C [32]: 48.9%; viability, T/C [18]: 58.8%; viability, T/C [33]: 46.8%; viability, T/C [23]: 78%; viability, T/C [24]: 71.1%; viability, T/C [34]: 52.3%; viability, T/C [26]: 79.2%; viability, T/C [27]: 93.1%; viability, T/C [28]: 67.2%; viability, T/C [29]: 64.2%; viability, T/C [30]: 54.4%; viability, T/C [35]: 26.8% |
| CCN1CCN(Cc2ccc(Nc3ncc(F)c(-c4cc(F)c5nc(C)n(C(C)C)c5c4)n3)nc2)CC1 + COc1cc2nc(C)nc(NC(C)c3cc(N)cc(C(F)(F)F)c3)c2cc1OC1CCOC1 | 390 nM | 317 nM | 321 nM | 236 nM | 162 nM | 83% | 62.9% | 55.3% | 38.9% | 74.3% | 64.4% | 51.3% | 33.7% | 74.7% | 61.8% | 53.3% | 35.5% | 70.8% | 57.6% | 53.3% | viability, T/C (second compound 0.1 µM, first compound 0.00316 µM): 102%; viability, T/C [1]: 93.3%; viability, T/C (second compound 0.316 µM, first compound 0.00316 µM): 79.6%; viability, T/C [7]: 86.8%; viability, T/C (second compound 1 µM, first compound 0.00316 µM): 80.4%; viability, T/C [13]: 90.5%; viability, T/C (second compound 3.16 µM, first compound 0.00316 µM): 90.2%; viability, T/C [19]: 73.9%; viability, T/C [23]: 29.4%; viability, T/C (second compound 10 µM, first compound 0.00316 µM): 78%; viability, T/C [25]: 86.3%; viability, T/C [26]: 72.7%; viability, T/C [27]: 53.8%; viability, T/C [28]: 40.6%; viability, T/C [29]: 8.08% |
| CCNC(=O)CC1N=C(c2ccc(Cl)cc2)c2cc(OC)ccc2-n2c(C)nnc21 (stereo not given) + COc1cc2nc(C)nc(NC(C)c3cc(N)cc(C(F)(F)F)c3)c2cc1OC1CCOC1 | > 10000 nM | > 10000 nM | 7760 nM | 5930 nM | 3250 nM | 99% | 93.9% | 78.1% | 76.5% | 87.5% | 97.6% | 77.9% | 68.4% | 92.9% | 95.4% | 79.8% | 69.5% | 86.3% | 89.1% | 78.5% | viability, T/C [6]: 70.5%; viability, T/C [31]: 71.8%; viability, T/C [12]: 73%; viability, T/C [32]: 51.1%; viability, T/C [18]: 61%; viability, T/C [33]: 46.7%; viability, T/C [23]: 70.3%; viability, T/C [24]: 52.7%; viability, T/C [34]: 47.2%; viability, T/C [26]: 82.6%; viability, T/C [27]: 83.2%; viability, T/C [28]: 87.1%; viability, T/C [29]: 62.9%; viability, T/C [30]: 53.4%; viability, T/C [35]: 31.6% |
| Cn1nccc1Nc1nccc(-c2cc3c(s2)C(C)(C)N(CCN2CCOCC2)C3=O)n1 + COc1cc2nc(C)nc(NC(C)c3cc(N)cc(C(F)(F)F)c3)c2cc1OC1CCOC1 | 1100 nM | 850 nM | 753 nM | 507 nM | 340 nM | 107% | 89.5% | 85.2% | 52.4% | 92% | 96.6% | 78% | 45.9% | 92.3% | 92.1% | 72.9% | 41.5% | 96.5% | 77.5% | 62% | viability, T/C [6]: 24.8%; viability, T/C [31]: 19.6%; viability, T/C [12]: 22.8%; viability, T/C [32]: 19%; viability, T/C [18]: 27%; viability, T/C [33]: 17.9%; viability, T/C [23]: 36.9%; viability, T/C [24]: 18.3%; viability, T/C [34]: 14.2%; viability, T/C [26]: 78.7%; viability, T/C [27]: 68.8%; viability, T/C [28]: 54%; viability, T/C [29]: 16.9%; viability, T/C [30]: 7.12%; viability, T/C [35]: 2.36% |
